“Also recorded” adds a separate entry of the source.
Experiments:
[1] = system: WT, PWS (Snord116m+/p−) and PWS-KO (Snord116m−/p−) mice; experiment: Fasting glucose and glucose tolerance test; format: in vivo, mouse; conditions: all genotypes, after 12 weeks diet, vs control diet
Protocol: Mice were food-deprived for 12-15 h during the dark cycle in a cage devoid of bedding material. For the fasting measurement, the tail was snipped (1-2 mm), and blood was collected directly on Care Touch glucose test strips and directly measured using a Care Touch blood glucose monitor (Future Diagnostics USA, Brooklyn, NY, USA). Glucose (pharmaceutical grade dextrose, 2 g/kg in PBS, sterile) was injected intraperitoneally (IP) and tail blood samples were obtained at 15, 30, 60, 90, and 120 min following the injection. Area under the curve was calculated using the formula (((([fasting glucose×7.5]+[15 min glucose×15)+[30 min glucose×22.5])+[60 min glucose×30])+[90 min glucose×30])+[120 min glucose×15]).

[2] = system: WT, PWS (Snord116m+/p−) and PWS-KO (Snord116m−/p−) mice; experiment: In vivo plantarflexor torque-frequency and fatigue assays; parameters: species or system mouse
Protocol: The procedures for in vivo muscle testing were recently published. Briefly, at the end of the study, following both running wheel and metabolism measurements, body weight was determined, and mice were anesthetized with isoflurane (VetOne Fluriso, Boise, ID, USA) and placed on the temperature-controlled platform (40° C.) of the contractile apparatus (ASI), as described. The right hindlimb was shaved, hair remover applied (Nair Hair Remover Lotion, Ewing, NJ, USA) for 30 s, cleaned with 2-inch×2-inch gauze and tap water, and swabbed with povidone-iodine (Betadine Solution Swabsticks, Stamford, CT, USA). The knee was clamped so the tibia was 90° to the femur. The foot at 90° to the tibia was secured with clear Transpore surgical tape ([…], St. Paul, MN, USA) to the foot pedal of the Aurora Scientific (ASI: Aurora, ON, Canada) dual-mode servomotor. The mouse tail was taped (M3, St. Paul, MN, USA) loosely to the platform to keep it clear of the foot pedal. In vivo plantarflexor torque-frequency and fatigue assays were determined as described in Hamm et al.. Dynamic Muscle Control (DMC) software controlled the timing and frequency of the stimulations and collection of torque. Peak torque for each muscle contraction was determined using ASI Dynamic Muscle Analysis (DMA) software. Due to the body mass and fat mass reduction of the CLA groups in this study, torque was normalized separately by body mass (g) and the final measure of lean body mass (g).
In vivo plantar-flexor torque-frequency and fatigue curves were analyzed using Graph-Pad Prism 9.2.0. A two-way ANOVA was performed with multiple comparisons across groups. For torque-frequency figures, a nonlinear model was fit using the sigmoidal curve with variable slope.

N2KO mice = conditions: 20% fat diet, refs [13-16]; cited from earlier work
[3] = system: C57Bl/6 WT and PWS mice; 129v/J WT and Nhlh2 KO mice; experiment: Elevated plus maze anxiety symptoms, Example 2; format: in vivo, mouse
Protocol: Mice were tested, using a pre-post design and an elevated plus maze for anxiety symptoms FIG. 16A. Mice that are anxious generally will spend less time in the open arms, compared to those without anxiety. PWS patients show a number of neurobehavioural traits with the most commonly diagnosed phenotype being anxiety. In this study mice were placed in the middle of a plus-type maze, and entrance, as well as time spent in open or closed arms over a 5 minute period were tested. Mice were tested only once before entering the 12-week feeding stud, and once at the end of the 12-week feeding study. The percent time is reported. The data shown in FIG. 16B-16C show a comparison between pre-week test results, and the two treatment groups for each genotype in the post-week test. As shown in FIGS. 16B and 16C, the percent time in open arms was less for all animals. […] These findings can be translated to treatment of humans with anxiety.

[4] = system: cecal bacterial communities; experiment: Cecum microbiome analysis (16S rRNA sequencing); format: in vivo, mouse
Protocol: Cecal samples were flash-frozen in liquid nitrogen and stored at −80° C. DNA was isolated from cecal content using a DNeasy PowerSoil Pro Kit (Qiagen #47014) and the TissueLyser II (Qiagen #85300). Fifty nanograms of genomic DNA was utilized for amplifi-cation of the V4 variable region of the 16S rRNA gene using 515F/806R primers. Forward and reverse primers were barcoded to accommodate multiplexing up to 384 samples per run as described by Kozich and colleagues. Paired-end sequencing (2×250 bp) of pooled amplicons was carried out using an Illumina Miseq platform with ˜30% PhiX DNA.
Demultiplexing, adapter trimming, and generating the fastq files were performed au-tomatically using the Miseq Reporter on the instrument computer. Bioinformatics analysis was then conducted using the QIIME 2 platform. Denoising was performed with an initial quality filtering followed by the Deblur algorithm. Representative amplicon sequence variants (ASVs) were used to generate a phylogenetic tree with FastTree, and taxonomy was assigned using a Naive Bayes classifier trained on the Greengenes 13_8 reference. To evaluate diversity metrics, samples were rarefied to an even depth of 4397 quality-filtered reads. Beta diversity was assessed using the weighted Unifrac distances and visualized using the principal coordinate analysis (PCoA) plot.
Statistical analyses for microbiome data were performed in R v4.0.5. Differences in beta diversity were evaluated using permutational multivariate analysis of variance (PERMANOVA) with 999 permutations and including the weighted Unifrac distance matrix. The Kruskal-Wallis test was used to evaluate alpha metrics and taxonomic differences and the Dunn's test was used to evaluate pairwise multiple comparisons, with p-values corrected for multiple testing using the false discovery rate (FDR) approach.

[5] = system: Normal, Snord116m+/p− (PWS model) and PWS KO mice; experiment: Body weight, body fat and lean mass, 12-week feeding study, Example 2; format: in vivo, mouse; conditions: 12 weeks, CLA 0.5% per gram food
Source text: Normal an d Snord116^m+/p− mice (PWS model), as well as mice with a complete deletion of Snord116 (PWS KO) were randomly divided into control or CLA-treatment groups. the diets (from Envigo/Harland-Teklad) were composed of 20% fat, and matched in all other components. Conjugated linoleic acid (Tonalin™, composed of 60%-90% of the cis-9, trans-11 and trans-10, cis-12 CLA isomers in a 50/50 ratio) was provided to the CLA-treatment groups to equal 0.5% per gram food intake.
Adult mice (aged 8-10 weeks) were housed individually, and given ad libitum access to either control or CLA food for 12 weeks. They were weighed weekly, and food intake, body fat, body lean mass, and rectal temperature were measured weekly.

Question: With conjugated linoleic acid [CLA] as the substance, how does the Fasting glucose [1] read?
Answer: significantly higher; also recorded: significantly increased fasting glucose

Question: What about the Resistance to fatigue ([2]; PWS CLA and PWS-KO CLA vs control diet counterparts) of the same substance?
Answer: lowered

Question: What about the “Plantarflexor torque output, PWS group” value ([2]; PWS, normalized to lean body mass) of the same substance?
Answer: lowered torque output

Question: And the Fatigue ([2]; WT and PWS mice on CLA diet vs most other genotypes and treatments)?
Answer: greater fatigue

Question: And the “Plantarflexor torque output, WT mice” value ([2]; WT, regardless of normalization method)?
Answer: increased torque output

Question: And the “Muscle function, overall” value ([2]; any group, vs WT baseline)?
Answer: not detrimental to muscle function

Question: What about the “Outcomes of CLA treatment of N2KO mice” value (N2KO mice) of the same substance?
Answer: weight loss, decreased body fat, increased metabolism, muscle mitochondrial biogenesis, and increased exercise performance

Question: What about the “Percent time in open arms, 129v/J WT and Nhlh2 KO mice” value ([3]; 12 weeks CLA vs control diet) of the same substance?
Answer: highly significant improvement

Question: What about the “Percent time in open arms, PWS mice” value ([3]; C57Bl/6 PWS mice, post-week) of the same substance?
Answer: numeric improvement

Question: And the “Relative abundance of Cyanobacteria” value ([4]; CLA vs control diet, p=0.04)?
Answer: lower

Question: What about the Firmicutes phylum overall ([4]; H=3.74, p=0.59) of the same substance?
Answer: not significantly affected

Question: What about the Sutterella sp. ([4]; H=13.8, p=0.02) of the same substance?
Answer: significantly increased

Question: What about the Ruminococcus sp. ([4]; all genotypes) of the same substance?
Answer: reduced

Question: And the Turicibacter sp. ([4]; all genotypes, H=15.7, p=0.008)?
Answer: significantly reduced

Question: And the “Relative abundance of the other phyla” value ([4]; between diets, p>0.09)?
Answer: similar

Question: And the α-diversity metrics ([4]; control vs CLA, p≤0.02)?
Answer: differed

Question: What about the β-diversity measures ([4]; weighted Unifrac) of the same substance?
Answer: significantly impacted

Question: What about the “Lean (muscle) mass” value [5] of the same substance?
Answer: no changed; also recorded: did not change

Question: What about the Body fat ([5]; vs control diet) of the same substance?
Answer: significant reduction

Question: What about the Body weight ([5]; vs control diet) of the same substance?
Answer: significant reduction

Reference: patent US20240238237A1, “CONJUGATED LINOLEIC ACID SUPPLEMENTATION FOR DISEASE TREATMENT” (VIRGINIA TECH INTELLECTUAL PROPERTIES, INC., priority 2021, published 2024)
